In test [1] the test system is cellular cholesterol in HEK293, CHO-K1, INS-1 832/3, MIN6B1 cells. The experiment in a line: Cholesterol depletion (filipin / Amplex Red). The class given is cell-based. More on the design: unit not given here. How it is done:
Cells were treated with or without MβCD as above. For cholesterol labeling, filipin staining was carried out with the Cell-Based Cholesterol Assay Kit (Abcam). For quantification of cholesterol levels, lipid was extracted using butanol as described. Briefly, the washed cell pellet was left in 250 μl butanol overnight at 4 °C, and the organic layer was aspirated, placed in a microplate, and allowed to evaporate to dryness. The lipid film was redissolved in 1% Triton X-100, and cholesterol concentration was determined using the Amplex Red Cholesterol Assay Kit (Thermo Fisher), followed by normalization to protein content of the cell pellet determined by BCA assay.

Test [2] relates to SNAP-GLP-1R. The experiment in a line: Palmitoylation assay, SNAP-GLP-1R. The class given is cell-based, human.
Description: For the detection of palmitoylated GLP-1Rs, cells were stimulated with 100 nM of the indicated agonist for 10 min and, when appropriate, pretreated with 10 μM BETP for 5 min (and throughout the agonist stimulation period) or overnight with 200 μM of the palmitoylation inhibitor 2-BP. Isolation of palmitoylated proteins was performed with the CAPTUREome S-Palmitoylated Protein Kit (Badrilla), following the manufacturer’s instructions. […] Key steps include blocking of free thiol groups with a blocking reagent, cleavage of thioester linkages to release the palmitate group, and capture of newly liberated thiols with the CAPTUREome capture resin. Briefly, cells were lysed and free thiols blocked in the manufacturer’s blocking buffer at 40 °C for 4 h with constant vortexing. Proteins were then precipitated with cold acetone for 20 min at −20 °C. Following centrifugation at 16,000g for 5 min, the pellet was extensively washed with 70% cold acetone and resuspended in the manufacturer’s binding buffer. Approximately 10% of the soluble lysate was saved as the input fraction (IF). Prewashed CAPTUREome capture resin was added to the lysates. To this mixture, either the thioester cleavage or the acyl-preservation reagents were added. Resins were washed five times with the manufacturer’s binding buffer. […]
For test [3], the system named is wt or C438A SNAP-GLP-1R in HEK293 cells. Description: Internalization of C438A versus wt SNAP-GLP-1R with BETP (confocal, DERET). The format is cell-based, human. Conditions: 100 nM exendin-phe1, 10 μM BETP.
For test [4], the system named is GLP-1R. Conditions: cited from earlier work.
Test [5] has as its system GLP-1R. Conditions: cited from earlier work. From the text:
To further elucidate the mechanism by which BETP potentiates GLP-1R responses, we examined the relative contributions of GLP-1R palmitoylation, β-arrestins, and cholesterol-dependent membrane compartmentalization to its effect.
This is another data set of the same source.

In test [6] the test system is SNAP-GIPR in CHO-K1 cells. Conditions: 100 nM GIP, 10 min.
In test [7] the test system is SNAP-GIPR in HEK293 cells. The settings on record: GIP 100 nM.
Description: These concentrations were selected because they provided optimum signal intensity at both measurement wavelengths. […] TR-FRET was sequentially measured after agonist addition.
For test [8], the target named is T1, endogenous GLP-1R in INS-1 832/3 cells (Rattus norvegicus, UniProt P32301).
T1 construct: endogenous in cells
T1 sequence (P32301 22-463): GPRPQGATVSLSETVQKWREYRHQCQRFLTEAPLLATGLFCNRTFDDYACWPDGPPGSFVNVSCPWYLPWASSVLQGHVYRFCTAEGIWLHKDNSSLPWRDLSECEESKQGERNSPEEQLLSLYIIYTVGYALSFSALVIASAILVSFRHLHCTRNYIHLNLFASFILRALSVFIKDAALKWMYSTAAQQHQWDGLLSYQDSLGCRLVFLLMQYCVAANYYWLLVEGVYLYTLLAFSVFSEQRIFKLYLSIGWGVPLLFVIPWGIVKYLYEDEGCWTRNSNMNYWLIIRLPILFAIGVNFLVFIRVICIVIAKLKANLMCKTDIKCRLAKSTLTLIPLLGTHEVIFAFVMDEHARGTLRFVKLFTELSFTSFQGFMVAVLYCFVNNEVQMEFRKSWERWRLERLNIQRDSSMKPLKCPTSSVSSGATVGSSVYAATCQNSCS
Description: HTRF cAMP, wt INS-1 832/3 cells. The settings on record: MβCD; wild-type INS-1 832/3 cells. The class given is cell-based.
Description: Cells were treated in white microplates with agonist, with or without isobutylmethylxanthine (IBMX) as indicated to inhibit phosphodiesterases, for the indicated period of time before total cellular cAMP determination by HTRF (Cisbio cAMP Dynamic 2).

The subject of test [9] is SNAP-GLP-1R. The experiment in a line: SNAP-GLP-1R internalization by confocal microscopy. The format is cell-based, human.
The test system of test [10] is SNAP-GLP-1R in HEK293 cells. The experiment in a line: NR12S TR-FRET (liquid-ordered localization). The class given is cell-based, human. Conditions: for concentration response with MβCD (sheet S2H): agonist not named. On the technique in general: In TR-FRET formats the signal depends on donor and acceptor labels being close together.
Test [11] has as its system SNAP-GIPR in INS-1 832/3 cells. The experiment in a line: SNAP-GIPR internalization by confocal microscopy. The format is cell-based. The settings on record: MβCD 10 mM 1 h; 100 nM GIP 1 h. How it is done: For confocal microscopy, cells were labeled at 37 °C with 1 μM of the indicated SNAP-tag fluorescent probe (New England Biolabs) in full media, stimulated with agonists for the indicated times, fixed in 4% paraformaldehyde, mounted in Prolong Diamond antifade reagent with 4,6-diamidino-2-phenylindole (Life Technologies), imaged with a Zeiss LSM-780 inverted confocal laser-scanning microscope in a ×63/1.4 numerical aperture oil-immersion objective from the Facility for Imaging by Light Microscopy (FILM) at Imperial College London, and analyzed in Fiji. […] Images were acquired with an ORCA-Flash 4.0 camera (Hamamatsu) and Metamorph software (Molecular Devices), and colocalization was measured by Manders’ coefficient analyzed using Coloc 2 plugin in Fiji.

Test [12] deals with SNAP-GLP-1R in HEK293 cells. The experiment in a line: Surface SNAP-GLP-1R labeling by Lumi4-Tb. The class given is cell-based, human. Conditions: MβCD treatment.
Test [13] concerns human GLP-1R (SNAP-GLP-1R) in MIN6B1 cells. The experiment in a line: SNAP-GLP-1R partitioning into detergent-resistant (raft) membrane fractions. The class given is cell-based. Conditions: 2 min stimulation, versus vehicle.

The source of these data is article PMC6716783, “Agonist-induced membrane nanodomain clustering drives GLP-1 receptor responses in pancreatic beta cells” (PLoS Biology, 2019).

Ends that are not written are not given here.

Take `CC(C)CCC[C@@H](C)[C@H]1CC[C@H]2[C@@H]3CC=C4C[C@@H](O)CC[C@]4(C)[C@H]3CC[C@]12C` [Chol]: the cellular cholesterol is listed as 666.594 in [1] (CHO-K1, replicate 1); 793.376 in test [1] (CHO-K1, replicate 2); 793.376 in [1] (CHO-K1, replicate 3); 549.236 in test [1] (HEK293, replicate 1); 621.505 in [1] (HEK293, replicate 2); 643.5 in [1] (HEK293, replicate 3). The cellular cholesterol in test [1] (INS-1 832/3, replicate 1) amounted to 653.543; in [1] (INS-1 832/3, replicate 2) it was 706.063; in test [1] (INS-1 832/3, replicate 3), 690.314; in test [1] (MIN6B1, replicate 1), 989.644; in [1] (MIN6B1, replicate 2), 1174.28; in test [1] (MIN6B1, replicate 3) it was 1186.59.
Consider `CCCCCCCCCCCCCCCC(=O)O` [palmitate], for which, in the test with SNAP-GLP-1R [2] (MIN6B1 SNAP-GLP-1R cells, excess palmitate (200 μM palmitate/BSA overnight)), the “GLP-1R palmitoylation (in words)” value is “greatly enhanced”.
As to `CC[S+]([O-])c1nc(-c2cccc(OCc3ccccc3)c2)cc(C(F)(F)F)n1` (centres unmarked) [BETP, 4-(3-benzyloxyphenyl)-2-ethylsulfinyl-6-(trifluoromethyl)pyrimidine], the “effect on exendin-4-induced palmitoylation (in words)” value with SNAP-GLP-1R [2] (CHO SNAP-GLP-1R cells, BETP 10 μM, 100 nM exendin-4 10 min) is on record as “significant reduction in exendin-4-induced palmitoylation”. Besides, the “effect of BETP on internalization of C438A (in words)” value in test [3] is recorded as “comparable to that of wild-type receptors”. Further, in the test on GLP-1R [4], the “potentiation of weak agonist GLP-1(9–36)NH2 (in words)” value is on record as “markedly augment responses” and the “potentiation of weak agonist oxyntomodulin (in words)” value is recorded as “markedly augment responses”. Moreover, the “covalent binding site (in words)” value with GLP-1R [5] was “covalently bind two intracellular GLP-1R cysteine residues (347 and 438”.
Take “glucose-dependent insulinotropic polypeptide [GIP]”: in [6], the “GIPR palmitoylation (in words)” value was “not further increased by GIP stimulation”. In addition, the “SNAP-GIPR clustering (in words)” value in test [7] was “no detectable increase upon GIP addition”.
In the case of methyl-β-cyclodextrin [MβCD], the “effect on cAMP production (in words)” value in [8] is “reduced by MβCD”. For the same molecule, the “effect on BETP-induced internalization of exendin-phe1-stimulated SNAP-GLP-1R (in words)” value in the test on SNAP-GLP-1R [9] (MIN6B1, MβCD 10 mM 1 h preincubation) is “inhibited this process to the same extent as for exendin-4”. For the same molecule, in the test on SNAP-GLP-1R [9] (MβCD 10 mM 1 h, 100 nM exendin-4, 15 min, beta and nonbeta cells), the “effect on exendin-4-induced internalization (in words)” value is “marked inhibition of exendin-4-induced SNAP-GLP-1R internalization”. Besides, in the test with SNAP-GLP-1R [9] (MβCD, wt and β-arrestin-less HEK293, 100 nM exendin-4, 15 min), the “effect on SNAP-GLP-1R endocytosis (in words)” value was “substantially inhibited by MβCD irrespective of β-arrestin status”. Moreover, in test [10] (MβCD, S2H), the “effect on NR12S-linked TR-FRET (in words)” value is “effective in reducing both basal and exendin-4-induced NR12S-linked increases in TR-FRET”. The “concentration response with MβCD (sheet S2H)” value (shortened to “concentration response”) in test [10] (log conc -6, replicate 1) is 33.0955; in test [10] (log conc -6, replicate 2) it was 36.4407; in test [10] (log conc -6, replicate 3), 38.4994; in [10] (log conc -6.47712, replicate 1), 34.0966; in [10] (log conc -6.47712, replicate 2) it was 36.1901; in test [10] (log conc -6.47712, replicate 3), 32.7645. Besides, the “concentration response” value in test [10] (log conc -6.95424, replicate 2) is listed as 32.2917; in test [10] (log conc -6.95424, replicate 3), 33.0671; in [10] (log conc -7.43136, replicate 1), 24.1893; in test [10] (log conc -7.43136, replicate 2), 31.793; in [10] (log conc -7.90849, replicate 2), 35.2618; in [10] (log conc -7.90849, replicate 3), 26.4888. Besides, the “concentration response” value in test [10] (log conc -8.38561, replicate 3) was found to be 33.8275; in test [10] (log conc -8.86273, replicate 1), 30.8645; in [10] (log conc -8.86273, replicate 2), 27.0998; in test [10] (log conc -8.86273, replicate 3), 36.96; in test [10] (log conc -10, replicate 1) it was 23.1185; in test [10] (log conc -10, replicate 2), 30.0361. In test [10] (log conc -10, replicate 3), the “concentration response” value is on record as 37.2206. In addition, the “effect on GIPR endocytosis (in words)” value in test [11] is given as “virtually abolished after MβCD treatment”. In addition, the “effect on surface SNAP-GLP-1R expression (in words)” value in test [12] is reported as “did not alter receptor surface SNAP-GLP-1R expression”. Further, the cellular cholesterol in test [1] (CHO-K1, replicate 1) stood at 39.7439; in [1] (CHO-K1, replicate 2), 158.5; in [1] (CHO-K1, replicate 3), 99.7412; in test [1] (HEK293, replicate 1), 170.419; in test [1] (HEK293, replicate 2) it was 186.214; in test [1] (HEK293, replicate 3) it was 179.148. Moreover, the cellular cholesterol in test [1] (INS-1 832/3, replicate 1) worked out at 159.866; in test [1] (INS-1 832/3, replicate 2), 177.786; in test [1] (INS-1 832/3, replicate 3), 167.411; in test [1] (MIN6B1, replicate 1), 202.183; in test [1] (MIN6B1, replicate 2) it was 224.442; in [1] (MIN6B1, replicate 3), 240.208.
Regarding “GLP-1(7–36)NH2: endogenous GLP-1R agonist (HAEGTFTSDVSSYLEGQAAKEFIAWLVKGR-NH2; UniProt P01275 98-127, looked up)”, the “SNAP-GLP-1R raft recruitment (in words)” value in [13] is recorded as “Increased enrichment of poly-glycosylated GLP-1Rs in membrane raft fractions”.
